Reference: patent US20260070917A1, “CYCLIN DEPENDENT KINASE DEGRADERS AND METHODS OF USE THEREOF” (Differentiated Therapeutics Inc, priority 2023, published 2026)
Like-named read-outs stand apart in the source and are kept apart here.

Tests used:
Format in all cases: cell-based
CDK2 = molecular target: T1, CDK2 (Homo sapiens, UniProt P24941); assay: HiBit Assay Protocol for CDK2 (HIBIT protein quantification, degradation); conditions: HEK293-CDK2-Hibit cells, compound treatment for 6 hours; for DC50: ABS DC50
T1 construct: host or cells: HEK293-CDK2-Hibit
Outline: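 DC50 comes from a fitted curve of remaining CDK2-HiBiT luminescence, referenced to DMSO-treated cells and medium-only wells. HEK293-CDK2-HiBiT cells, plated the previous night, received compounds in a 10-point, 3-fold series for 6 h before lysis with LgBiT-containing Nano-Glo HiBiT reagent.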

CDK9 = molecular target: T2, CDK9 (Homo sapiens, UniProt P50750); assay: HiBit Assay Protocol for CDK9 (HIBIT protein quantification, degradation); conditions: HEK293-CDK9-Hibit cells, compound treatment for 6 hours; for Dmax: read-out: CDK9 HIBIT Protein Quantification Maximum; for DC50: ABS DC50
T2 construct: host or cells: HEK293-CDK9-Hibit
Outline: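 Degradation read-out: luminescence after lytic HiBiT/LgBiT detection in HEK293-CDK9-HiBiT cells exposed 6 h to 10-point, 3-fold compound dilutions. Signal scaled between 0.1% DMSO-treated cells and medium alone; DC50 fitted from the curve.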

CCNE1 [1] = molecular target: T3, CCNE1 (Homo sapiens, UniProt P24864+P24941); assay: HiBit Assay Protocol for CCNE1 (HIBIT protein quantification, degradation); conditions: HEK293-CCNE1-Hibit cells, compound treatment for 6 hours, ABS DC50
T3 construct: host or cells: HEK293-CCNE1-Hibit
Outline: (§1)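 Degradation readout: lytic Nano-Glo HiBiT luminescence after 6 h exposure of HEK293-CCNE1-HiBiT cells to 10-point, 3-fold serial dilutions. Signal was scaled between medium-only and DMSO-treated wells, and DC50 came from curve fits.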

CCNE1 [2] = molecular target: T4, CCNE1 (Homo sapiens, UniProt P24864); assay: as above; conditions: HEK293-CCNE1-Hibit cells, compound treatment for 6 hours
T4 construct: host or cells: HEK293-CCNE1-Hibit
Outline: as §1

T2 sequence (P50750 whole entry): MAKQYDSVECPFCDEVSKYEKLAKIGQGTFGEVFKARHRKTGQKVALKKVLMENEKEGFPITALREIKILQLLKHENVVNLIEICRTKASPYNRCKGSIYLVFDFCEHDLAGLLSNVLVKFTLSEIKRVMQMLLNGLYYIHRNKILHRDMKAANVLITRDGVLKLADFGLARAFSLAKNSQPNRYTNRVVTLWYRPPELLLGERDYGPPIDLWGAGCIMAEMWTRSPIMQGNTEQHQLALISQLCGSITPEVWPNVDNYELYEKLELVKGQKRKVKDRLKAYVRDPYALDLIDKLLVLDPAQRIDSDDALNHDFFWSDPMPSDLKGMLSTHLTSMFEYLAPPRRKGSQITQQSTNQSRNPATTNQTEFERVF
T4 sequence (P24864 whole entry): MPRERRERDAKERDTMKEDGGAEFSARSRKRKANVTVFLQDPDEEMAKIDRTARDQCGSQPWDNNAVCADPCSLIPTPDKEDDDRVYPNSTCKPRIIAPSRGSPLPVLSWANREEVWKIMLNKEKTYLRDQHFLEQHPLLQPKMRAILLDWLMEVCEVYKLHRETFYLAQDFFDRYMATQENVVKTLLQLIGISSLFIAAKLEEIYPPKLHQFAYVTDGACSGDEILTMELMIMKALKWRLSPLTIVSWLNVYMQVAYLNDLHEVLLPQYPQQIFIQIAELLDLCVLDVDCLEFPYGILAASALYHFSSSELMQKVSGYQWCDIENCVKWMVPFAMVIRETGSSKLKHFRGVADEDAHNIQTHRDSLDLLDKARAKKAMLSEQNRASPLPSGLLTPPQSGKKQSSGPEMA
T3 sequence (P24864 whole entry, one chain of several): as the sequence (P24864 whole entry) above

SMILES | CDK2 HIBIT Protein Quantification Maximum (CDK2) | DC50 (CDK2) | Dmax (CDK9; 6 h) | DC50 (CDK9) | DC50 (CCNE1 [1]) | CCNE1 HIBIT Protein Quantification Maximum (CCNE1 [2]) | Dmax (CDK9)
CN(CCCN1CCC(c2cccc3c2n(C)c(=O)n3C2CCC(=O)NC2=O)CC1)S(=O)(=O)c1ccc(Nc2ncc3c(n2)N([C@@H]2CCC[C@@H](O)C2)C(=O)C32CC2)cc1 (stereo partly drawn) [Compound 116, N-(3-(4-(1-(2,6-dioxopiperidin-3-yl)-3-methyl-2-oxo-2,3-dihydro-1H-benzo[d]imidazol-4-yl)piperidin-1-yl)propyl)-4-((7′-((1R,3R)-3-hydroxycyclohexyl)-6′-oxo-6′,7′-dihydrospiro[cyclopropane-1,5′-pyrrolo[2,3-d]pyrimidin]-2′-yl)amino)-N-methylbenzenesulfonamide] | 86% | 14 nM | 81% | 74.9 nM | 23.2 nM | 75% | –
CC1CCCC1N1C(=O)C2(CC2)c2cnc(Nc3ccc(S(=O)(=O)N(C)CCCN4CCC(c5cccc6c5n(C)c(=O)n6C5CCC(=O)NC5=O)CC4)cc3)nc21 (stereo not drawn) [Compound 117, N-(3-(4-(1-(2,6-dioxopiperidin-3-yl)-3-methyl-2-oxo-2,3-dihydro-1H-benzo[d]imidazol-4-yl)piperidin-1-yl)propyl)-N-methyl-4-((7′-(2-methylcyclopentyl)-6′-oxo-6′,7′-dihydrospiro [cyclopropane-1,5′-pyrrolo[2,3-d]pyrimidin]-2′-yl)amino)benzenesulfonamide] | 78% | 10 nM | 65% | 21.8 nM | 7.43 nM | 64% | –
O=C1CCC(N2Cc3cc(CN4CC(Oc5cccc(S(=O)(=O)c6ccc(Nc7ncc8c(n7)N([C@@H]7CCC[C@@H](O)C7)C(=O)C87CC7)cc6)c5)C4)ccc3C2=O)C(=O)N1 (stereo partly drawn) [Compound 125, 3-[5-({3-[3-(4-{7′-[(1R,3R)-3-hydroxycyclohexyl]-6′-oxospiro[cyclopropane-1,5′-pyrrolo [2,3-d]pyrimidin]-2′-ylamino}benzenesulfonyl)phenoxy]azetidin-1-yl}methyl)-1-oxo-3H-isoindol-2-yl]piperidine-2,6-dione] | 54% | 4 nM | – | – | 2.35 nM | 81% | 13%
O=C1CCC(N2Cc3cc(N4CCN(CC5CCN(c6cccc(S(=O)(=O)c7ccc(Nc8ncc9c(n8)N([C@@H]8CCC[C@@H](O)C8)C(=O)C98CC8)cc7)c6)CC5)CC4)ccc3C2=O)C(=O)N1 (stereo partly drawn) [Compound 126, 3-{5-[4-({1-[3-(4-{7′-[(1R,3R)-3-hydroxycyclohexyl]-6′-oxospiro [cyclopropane-1,5′-pyrrolo[2,3-d]pyrimidin]-2′-ylamino}benzenesulfonyl)phenyl]piperidin-4-yl}methyl)piperazin-1-yl]-1-oxo-3H-isoindol-2-yl}piperidine-2,6-dione] | 66% | 6 nM | – | 33.4 nM | 29.6 nM | 71% | 84%
CN(CCCN1CCC(c2cccc3c2n(C)c(=O)n3C2CCC(=O)NC2=O)CC1)S(=O)(=O)N1CCC(Nc2ncc3c(n2)N([C@@H]2CCC[C@@H](O)C2)C(=O)C32CC2)CC1 (stereo partly drawn) [Compound 131, N-(3-{4-[1-(2,6-Dioxopiperidin-3-yl)-3-methyl-2-oxo-1,3-benzodiazol-4-yl]piperidin-1-yl}propyl)-4-{7′-[(1R,3R)-3-hydroxycyclohexyl]-6′-oxospiro[cyclopropane-1,5′-pyrrolo[2,3-d]pyrimidin]-2′-ylamino}-N-methylpiperidine-1-sulfonamide] | 83% | 21.9 nM | 56% | 69.2 nM | 19.9 nM | 63% | –

Now from value to compound, other results behind:

CDK2 HIBIT Protein Quantification Maximum (CDK2) | DC50 (CDK2) | Dmax (CDK9; 6 h) | DC50 (CDK9) | DC50 (CCNE1 [1]) | CCNE1 HIBIT Protein Quantification Maximum (CCNE1 [2]) | SMILES | Dmax (CDK9)
80% | 3.31 nM | 3% | – | 78.5 nM | 69% | C[C@H](c1cccc(S(=O)(=O)N2CCC(Nc3ncc4c(n3)N([C@@H]3CCC[C@@H](O)C3)C(=O)C43CC3)CC2)c1)N1CCC(c2ccc3c(N4CCC(=O)NC4=O)nn(C)c3c2)CC1 [Compound 151, 1-(6-{1-[(1R)-1-[3-(4-{7′-[(1R,3R)-3-hydroxycyclohexyl]-6′-oxospiro[cyclopropane-1,5′-pyrrolo[2,3-d]pyrimidin]-2′-ylamino}piperidin-1-ylsulfonyl)phenyl]ethyl]piperidin-4-yl}-1-methylindazol-3-yl)-1,3-diazinane-2,4-dione] | –
80% | 2.64 nM | 13% | – | 5.96 nM | 56% | Cn1nc(N2CCC(=O)NC2=O)c2ccc(C3CCN(Cc4cccc(S(=O)(=O)N5CC[C@@H](Nc6ncc7c(n6)N([C@@H]6CCC[C@@H](O)C6)C(=O)C76CC6)[C@H](F)C5)c4)CC3)cc21 [Compound 158] | –
68% | 2.83 nM | 49% | – | 5.99 nM | 54% | Cc1c(CN2CCC(c3ccc4c(N5CCC(=O)NC5=O)nn(C)c4c3)CC2)cccc1S(=O)(=O)N1CCC(Nc2ncc3c(n2)N([C@@H]2CCC[C@@H](O)C2)C(=O)C32CC2)CC1 [Compound 159, 1-[6-(1-{[3-(4-{7′-[(1R,3R)-3-Hydroxycyclohexyl]-6′-oxospiro [cyclopropane-1,5′-pyrrolo[2,3-d]pyrimidin]-2′-ylamino}piperidin-1-ylsulfonyl)-2-methylphenyl]methyl}piperidin-4-yl)-1-methylindazol-3-yl]-1,3-diazinane-2,4-dione] | –
85% | 2.63 nM | 12% | – | 6.18 nM | 54% | C[C@@H](C1CC1)N1C(=O)C2(CC2)c2cnc(NC3CCN(S(=O)(=O)c4cccc(CN5CCC(c6ccc7c(N8CCC(=O)NC8=O)nn(C)c7c6)CC5)c4)CC3)nc21 [Compound 164, 1-[6-(1-{[3-(4-{7′-[(1S)-1-Cyclopropylethyl]-6′-oxospiro[cyclopropane-1,5′-pyrrolo[2,3-d]pyrimidin]-2′-ylamino}piperidin-1-ylsulfonyl)phenyl]methyl}piperidin-4-yl)-1-methylindazol-3-yl]-1,3-diazinane-2,4-dione] | –
82% | 4.8 nM | 46% | – | 8.09 nM | 52% | CC1CN(Cc2cccc(S(=O)(=O)N3CCC(Nc4ncc5c(n4)N([C@@H]4CCC[C@@H](O)C4)C(=O)C54CC4)CC3)c2)CCC1c1ccc2c(N3CCC(=O)NC3=O)nn(C)c2c1 (stereo partly drawn) [Compound 182, 1-[6-(1-{[3-(4-{7′-[(1R,3R)-3-Hydroxycyclohexyl]-6′-oxospiro[cyclopropane-1,5′-pyrrolo[2,3-d]pyrimidin]-2′-ylamino}piperidin-1-ylsulfonyl)phenyl]methyl}-3-methylpiperidin-4-yl)-1-methylindazol-3-yl]-1,3-diazinane-2,4-dione] | –
